Target: SV40 large T antigen (Simian virus 40, UniProt P03070)
Test: Homogeneous helicase assay (streptavidin displacement from biotin-labelled oligonucleotide, biotin-4-fluorescein quenching)
Format: biochemical
Settings: inhibitor added to the helicase assay; fluorescence ex 485 nm / em 535 nm; FIG. 4
From the text: The helicase substrate takes the form of an oligonucleotide of length appropriate to the helicase under test that is biotinylated at one end, appropriate to the directionality of the helicase under test. In this example, a single-strand 60-mer with the sequence […] TGCATGATG was labelled with biotin at the 5′-terminus (obtained from Eurogentec, Belgium) so that it could be used as a substrate for the helicase function of the SV40 large T antigen which is a 3′-5′ helicase.
Equal volumes of streptavidin and biotin-labelled oligonucleotide dissolved in reaction buffer (see below) were mixed in such a way that there was at least a four-fold molar excess of oligonucleotide over streptavidin. This is to ensure the saturation of all biotin-binding sites on the streptavidin molecule (4 biotin-binding sites per molecule streptavidin). This mixture was incubated for at least 15 minutes before being used for the assay.
An aliquot of the oligonucleotide/streptavidin complex (oligo/SA) was then mixed with SV40 large T antigen and biotin-4-fluorescein in a suitable buffer, in this case 50 mM Tris-HCl pH 7.5, containing 3 mM MgCl2, 5 mM dithiothreitol and 100 μg/ml bovine serum albumin and pipetted into 384-well microplates.
The enzyme reaction was started by adding an appropriate amount of adenosine triphosphate and incubating the plate at 37° C. […]

SV40 large T antigen, sequence (P03070 whole entry): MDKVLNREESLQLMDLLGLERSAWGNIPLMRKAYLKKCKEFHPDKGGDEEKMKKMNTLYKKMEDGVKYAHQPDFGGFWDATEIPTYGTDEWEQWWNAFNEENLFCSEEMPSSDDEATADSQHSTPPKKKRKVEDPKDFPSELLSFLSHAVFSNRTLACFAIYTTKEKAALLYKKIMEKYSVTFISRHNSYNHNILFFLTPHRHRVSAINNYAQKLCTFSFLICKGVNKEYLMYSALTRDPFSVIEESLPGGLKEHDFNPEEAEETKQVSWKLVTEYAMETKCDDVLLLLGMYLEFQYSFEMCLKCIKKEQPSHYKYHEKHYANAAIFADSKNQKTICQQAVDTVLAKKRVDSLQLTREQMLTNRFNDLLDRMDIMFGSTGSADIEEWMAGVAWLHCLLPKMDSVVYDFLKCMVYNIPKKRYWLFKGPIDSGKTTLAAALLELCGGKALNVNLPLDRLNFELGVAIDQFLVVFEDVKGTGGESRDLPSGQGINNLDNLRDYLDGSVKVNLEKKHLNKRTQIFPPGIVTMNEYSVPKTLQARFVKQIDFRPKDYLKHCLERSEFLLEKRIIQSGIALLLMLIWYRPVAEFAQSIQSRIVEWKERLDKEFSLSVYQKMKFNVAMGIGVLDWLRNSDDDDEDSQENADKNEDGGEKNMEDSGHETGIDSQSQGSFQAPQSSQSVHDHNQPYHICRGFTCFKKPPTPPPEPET

Cn1cc(NC(=O)c2cc(NC(=O)c3cc(NC=O)cn3C)cn2C)cc1C(=O)NCCC(=N)N [Distamycin A]
helicase activity (displacement of the streptavidin from the biotin-labelled substrate): dose-dependently decrease helicase activity

Source: US20050014149A1, “Assay for inhibitors of translocases” (priority 2001, published 2005)
